Laboratory results: patent US4956345A, “2-alkynyladenosines as antihypertensive agents” (Yamasa Shoyu Kabushiki Kaisha, priority 1985, dated 1990)
Like-named read-outs stand apart in the source and are kept apart here.

Tests used:
adenosine deaminase = conditions: background statement; cited from earlier work
heart = conditions: side effect, background statement; cited from earlier work
blood pressure in NR [1] = test: Test 3: effect on the blood pressure in NR, intravenous; assay type: in vivo, male Wistar rats (normotensive rats; conditions: 100 μg/kg, procedure of Test 2 (femoral vein), 10- to 12-week-old male Wistar rats
Protocol: (§1) Thirty-two-week-old male SHRs (divided into groups of three rats each) were anesthetized with urethane (1.1 g/kg, i.p.), and the blood pressure of each of the rats delivered from the common carotid artery was recorded on a polygraph through a pressure transducer (Model MPU-0.5).
(§2) The pharmaceutical preparation was administered through a cannula inserted into the femoral vein of the rat at a rate of 0.5 ml/kg, and the blood pressure was measured continuously from before administration to 30 minutes after administration.
(§3) The procedure of Test 2 was followed with 10- to 12-week-old male Wistar rats (divided into groups of three rats each) to measure the hypotensive effects of the respective pharmaceutical preparations (100 μg/kg). Simultaneously, the change in heart rate was measured. The heart rate was measured by an ictometer based on the systolic blood pressure as a trigger.

heart rate = test: Test 3: change in heart rate in NR; assay type: in vivo, male Wistar rats (normotensive rats; conditions: 100 μg/kg, procedure of Test 2, 10- to 12-week-old male Wistar rats
Protocol: as §3

Test 5: Acute toxicity = assay type: in vivo; conditions: mouse, in vivo
Protocol: (§4) The acute toxicity of Compound 8(n=13) was tested with seven-week-old male Jcl:ICR mice.
(§5) The physically allowable doses of Compound 8 for intraperitoneal administration and oral administration were 800 mg/kg and 1,300 mg/kg, respectively.

male Jcl:ICR mice = test: Test 5: Acute toxicity; assay type: in vivo
Protocol: as §4, §5

blood pressure in NR [2] = test: Test 4: effect on the blood pressure in NR, oral; assay type: in vivo, male Wistar rats (normotensive rats; conditions: Wistar rat, 18- to 20-week-old male, 10 mg/kg
Protocol: Eighteen- to twenty-week-old male SHR (divided into groups of four rats each) and eighteen- to twenty-week-old male Wistar rats (divided into groups of four rats each) were orally administered with Compound 8(n=13) in the same manner as in Test 2 at a dose of 10 mg/kg, and the blood pressure of each of the rats was measured.

blood pressure in SHR [3] = test: Test 1: effect on the blood pressure in SHR, oral, tail artery sphygmomanometer; assay type: in vivo, spontaneously hypertensive rats (SHR); conditions: 12- to 15-week-old male SHR, maximum within 2, 4, 6 and 8 hours
Protocol: To twelve- to fifteen-week-old male SHRs were orally administered test compounds each suspended in 0.5% CMC/physiological saline at a rate of 2 ml/kg. The blood pressure of the thus treated SHRs was measured by means of a tail artery sphygmomanometer (supplied by Nalco Co., Model PE-300) prior to the oral administration and at 2, 4, 6 and 8 hours thereafter. Reduction in blood pressure was calculated on the basis of the values thus obtained, and the maximum reduction levels attained by the respective compounds are summarized in TABLE 2. Each test compound was evaluated with a group of 4 rats.

blood pressure in SHR [4] = test: Test 4: effect on the blood pressure in SHR, oral; assay type: in vivo, spontaneously hypertensive rats (SHR), male; conditions: 10 mg/kg
blood pressure in SHR [5] = test: Test 2: effect on the blood pressure in SHR, intravenous, anesthetized; assay type: in vivo, spontaneously hypertensive rats (SHR), male; conditions: for Reduction in blood pressure (-Δmax, mmHg): 100 μg/kg, femoral vein, 32-week-old male SHR, urethane anesthesia, 30 minutes; for selectivity of hypotensive effect, SHR versus NR (in words): TABLES 3 and 4, 100 μg/kg
Protocol: as §1, §2

Compound | Reduction in blood pressure (-Δmax, mmHg) (blood pressure in NR [1]) [mmHg] | Change in heart rate (ΔHR) (heart rate) | Reduction in blood pressure (-Δmax, mmHg) (blood pressure in SHR [3]; 3 mg/kg) [mmHg] | also measured
Nc1ncnc2c1ncn2[C@@H]1O[C@H](CO)[C@@H](O)[C@H]1O [adenosine] |  |  |  | deamination by adenosine deaminase (adenosine deaminase): rapidly deaminated by adenosine deaminase; suppressive effect on the heart (heart): strong suppressive effect on the heart
CCCC#Cc1nc(N)c2ncn([C@@H]3O[C@H](CO)[C@@H](O)[C@H]3O)c2n1 [Compound 1] | 21 | -48 |  | 
CCCCCCCCCCCCCCC#Cc1nc(N)c2ncn([C@@H]3O[C@H](CO)[C@@H](O)[C@H]3O)c2n1 [Compound 8] | 5 | 0 | 48 | LD50 (Test 5: Acute toxicity; ip, read-out: LD50, intraperitoneal administration): > 800 mg/kg; selectivity ratio (Test 5: Acute toxicity; po): ≥ 400; LD50 (Test 5: Acute toxicity; po, read-out: LD50, oral administration): > 1300 mg/kg; toxicity compared with Compound 6 (in words) (male Jcl:ICR mice; compared with long-chain compound such as Compound 6): less toxic; mortality at maximum doses (male Jcl:ICR mice; mouse, in vivo): None of the mice administered with the test compound at these maximum doses, divided into groups of five mice each, died; Reduction in blood pressure (-Δ, mmHg), 1 hr. after administration (blood pressure in NR [2]; 1 hr): 16 mmHg; Reduction in blood pressure (-Δ, mmHg), 2 hrs. after administration (blood pressure in NR [2]; 2 hrs): 24 mmHg; selectivity of hypotensive effect on SHR, oral (in words) (blood pressure in SHR [4]; SHR versus Wistar rat, TABLE 5): tendency of Compound 8(n=13) to act selectively on SHR; Reduction in blood pressure (-Δ, mmHg), 1 hr. after administration (blood pressure in SHR [4]; SHR, 18- to 20-week-old male, 1 hr): 41 mmHg; Reduction in blood pressure (-Δ, mmHg), 2 hrs. after administration (blood pressure in SHR [4]; SHR, 18- to 20-week-old male, 2 hrs): 42 mmHg; Reduction in blood pressure (-Δmax, mmHg) (blood pressure in SHR [5]): 16 mmHg; selectivity of hypotensive effect, SHR versus NR (in words) (blood pressure in SHR [5]): acted selectively on SHR
CCCCCCCCC#Cc1nc(N)c2ncn([C@@H]3O[C@H](CO)[C@@H](O)[C@H]3O)c2n1 [Compound 5] | 24 | -18 | 106 | 
CCCCCCCCCCC#Cc1nc(N)c2ncn([C@@H]3O[C@H](CO)[C@@H](O)[C@H]3O)c2n1 [Compound 6] | 26 | -12 | 65 | mortality, intraperitoneal administration of 500 mg/kg (male Jcl:ICR mice; mouse, in vivo): all the five mice forming one group died; Reduction in blood pressure (-Δmax, mmHg) (blood pressure in SHR [5]): 20 mmHg; selectivity of hypotensive effect, SHR versus NR (in words) (blood pressure in SHR [5]): substantially equal hypotensive effect on SHR and NR
CCCCCC#Cc1nc(N)c2ncn([C@@H]3O[C@H](CO)[C@@H](O)[C@H]3O)c2n1 [Compound 3] | 48 | -180 |  | 
CCCCCCC#Cc1nc(N)c2ncn([C@@H]3O[C@H](CO)[C@@H](O)[C@H]3O)c2n1 [Compound 4] | 55 | -288 |  | Reduction in blood pressure (-Δmax, mmHg) (blood pressure in SHR [3]; 1 mg/kg): 69 mmHg
CCCCC#Cc1nc(N)c2ncn([C@@H]3O[C@H](CO)[C@@H](O)[C@H]3O)c2n1 [Compound 2] | 42 | -36 |  | Reduction in blood pressure (-Δmax, mmHg) (blood pressure in SHR [3]; 1 mg/kg): > 136 mmHg
CCCCCCCCCCCCCCCCC#Cc1nc(N)c2ncn([C@@H]3O[C@H](CO)[C@@H](O)[C@H]3O)c2n1 [Compound 10] | 10 | -5 | 46 | 
CCCCCCCCCCCCC#Cc1nc(N)c2ncn([C@@H]3O[C@H](CO)[C@@H](O)[C@H]3O)c2n1 [Compound 7] | 10 | 0 | 65 | Reduction in blood pressure (-Δmax, mmHg) (blood pressure in SHR [5]): 21 mmHg; selectivity of hypotensive effect, SHR versus NR (in words) (blood pressure in SHR [5]): acted selectively on SHR
CCCCCCCCCCCCCCCC#Cc1nc(N)c2ncn([C@@H]3O[C@H](CO)[C@@H](O)[C@H]3O)c2n1 [Compound 9] | 3 | -6 | 35 | 
